In patent US20180170904A1, “PYRIDIN-3-YL ACETIC ACID DERIVATIVES AS INHIBITORS OF HUMAN IMMUNODEFICIENCY VIRUS REPLICATION” (priority 2015, published 2018) one finds EC50 data, which are given here for 16 molecules.

For one experiment, the system named is NL-RLuc virus (recombinant NL4-3 proviral clone with Renilla Luciferase gene). As to the kind of experiment: Inhibition of HIV replication (NL-RLuc reporter virus in MT-2 cells). In kind it is cell-based. Conditions: Renilla, NL43, 120 h, read-out: Activity. The gist of the method: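 Antiviral EC50 came from luciferase signal after 5-day multicycle replication of NL-RLuc virus in MT-2 cells with serially diluted compound (RPMI 1640, 10% heat-inactivated FBS), fitted by the median effect equation over at least 2 experiments.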
Turning to `Cc1nc(C)c([C@H](OC(C)(C)C)C(=O)O)c(N2CCC(C)(C)CC2)c1-c1ccc(C(=O)O)c(C(=O)NCc2ccccc2)c1` [Example 45, (S)-2-(benzylcarbamoyl)-4-(5-(tert-butoxy(carboxy)methyl)-4-(4,4-dimethylpiperidin-1-yl)-2,6-dimethylpyridin-3-yl)benzoic acid], the EC50 lay within 0.1 to 1 µM.
With `Cc1nc(C)c([C@H](OC(C)(C)C)C(=O)O)c(N2CCC(C)(C)CC2)c1-c1ccc(CC(C)C)cc1` [Example 20, (S)-2-(tert-Butoxy)-2-(4-(4,4-dimethylpiperidin-1-yl)-5-(4-isobutylphenyl)-2,6-dimethylpyridin-3-yl)acetic acid], the EC50 was < 0.1 µM.
Still for that read-out and setting: to `Cc1nc(C)c([C@H](OC(C)(C)C)C(=O)O)c(N2CC(C(C)C)C2)c1-c1ccc(C(=O)NCc2ccccc2)cc1` [Example 59, (S)-2-(5-(4-(Benzylcarbamoyl)phenyl)-4-(3-isopropylazetidin-1-yl)-2,6-dimethylpyridin-3-yl)-2-(tert-butoxy)acetic acid] belongs > 1 µM; to `Cc1nc(C)c([C@H](OC(C)(C)C)C(=O)O)c(N2CCC(C)(C)CC2)c1-c1ccc(CC#N)cc1` [Example 48, (S)-2-(tert-Butoxy)-2-(5-(4-(cyanomethyl)phenyl)-4-(4,4-dimethylpiperidin-1-yl)-2,6-dimethylpyridin-3-yl)acetic acid], 0.1 to 1 µM.
For `CC(=O)N(CCc1ccc(F)cc1)c1ccc(-c2c(C)nc(C)c([C@H](OC(C)(C)C)C(=O)O)c2N2CCC(C)(C)CC2)cc1` [Example 75, (S)-2-(tert-Butoxy)-2-(4-(4,4-dimethylpiperidin-1-yl)-5-(4-(N-(4-fluorophenethyl)acetamido)phenyl)-2,6-dimethylpyridin-3-yl)acetic acid], the EC50 is < 0.1 µM.
The same measure, in the same setting: with `Cc1nc(C)c([C@H](OC(C)(C)C)C(=O)O)c(N2CCC(C)(C)CC2)c1-c1ccc(-c2ccccc2)c(F)c1` [Example 14, (S)-2-(tert-Butoxy)-2-(4-(4,4-dimethylpiperidin-1-yl)-5-(2-fluoro-[1,1′-biphenyl]-4-yl)-2,6-dimethylpyridin-3-yl)acetic acid] the figure was < 0.1 µM; with `Cc1nc(C)c([C@H](OC(C)(C)C)C(=O)O)c(N2CCC(C)(C)CC2)c1-c1ccc(CO)cc1` [Example 82, (S)-2-(tert-Butoxy)-2-(4-(4,4-dimethylpiperidin-1-yl)-5-(4-(hydroxymethyl)phenyl)-2,6-dimethylpyridin-3-yl)acetic acid], < 0.1 µM; with `Cc1nc(C)c([C@H](OC(C)(C)C)C(=O)O)c(N2CCC(C)(C)CC2)c1-c1ccc(CCCO)cc1` [Example 31, (S)-2-(tert-Butoxy)-2-(4-(4,4-dimethylpiperidin-1-yl)-5-(4-(3-hydroxypropyl)phenyl)-2,6-dimethylpyridin-3-yl)acetic acid], < 0.1 µM.
Turning to `Cc1nc(C)c([C@H](OC(C)(C)C)C(=O)O)c(N2CCC(C)(C)CC2)c1-c1ccc(-c2ncc(-c3ccc(F)cc3)s2)cc1` [Example 6, (S)-2-(tert-Butoxy)-2-(4-(4,4-dimethylpiperidin-1-yl)-5-(4-(5-(4-fluorophenyl)thiazol-2-yl)phenyl)-2,6-dimethylpyridin-3-yl)acetic acid], the EC50 was < 0.1 µM.
With `Cc1nc(C)c([C@H](OC(C)(C)C)C(=O)O)c(N2CCC(C)(C)CC2)c1-c1ccc(C(C)(C)O)cc1` [Example 38, (S)-2-(tert-Butoxy)-2-(4-(4,4-dimethylpiperidin-1-yl)-5-(4-(2-hydroxypropan-2-yl)phenyl)-2,6-dimethylpyridin-3-yl)acetic acid], the EC50 was < 0.1 µM.
For the molecule `Cc1nc(C)c([C@H](OC(C)(C)C)C(=O)O)c(N2CCC(C)(C)CC2)c1-c1ccc(-c2ncc(Cc3ccc(F)cc3)o2)cc1` [Example 4, (S)-2-(tert-Butoxy)-2-(4-(4,4-dimethylpiperidin-1-yl)-5-(4-(5-(4-fluorobenzyl)oxazol-2-yl)phenyl)-2,6-dimethylpyridin-3-yl)acetic acid], the EC50 is < 0.1 µM.
In the case of `Cc1nc(C)c([C@H](OC(C)(C)C)C(=O)O)c(N2CCC(C)(C)CC2)c1-c1ccc(F)c(F)c1` [Example 41, (S)-2-(tert-Butoxy)-2-(5-(3,4-difluorophenyl)-4-(4,4-dimethylpiperidin-1-yl)-2,6-dimethylpyridin-3-yl)acetic acid], the EC50 is < 0.1 µM.
With `Cc1ccc(-c2c(C)nc(C)c([C@H](OC(C)(C)C)C(=O)O)c2N2CCC(C)(C)CC2)cc1C` [Example 44, (S)-2-(tert-Butoxy)-2-(5-(3,4-dimethylphenyl)-4-(4,4-dimethylpiperidin-1-yl)-2,6-dimethylpyridin-3-yl)acetic acid], the EC50 is < 0.1 µM.
`CCc1ccc(-c2ccc(-c3c(C)nc(C)c([C@H](OC(C)(C)C)C(=O)O)c3N3CCC(C)(C)CC3)cc2)cc1` [Example 12, (S)-2-(tert-Butoxy)-2-(4-(4,4-dimethylpiperidin-1-yl)-5-(4′-ethyl-[1,1′-biphenyl]-4-yl)-2,6-dimethylpyridin-3-yl)acetic acid]: the EC50 lay within 0.1 to 1 µM.
Regarding `CNS(=O)(=O)c1ccc(-c2c(C)nc(C)c([C@H](OC(C)(C)C)C(=O)O)c2N2CCC(C)(C)CC2)cc1` [Example 32, (S)-2-(tert-Butoxy)-2-(4-(4,4-dimethylpiperidin-1-yl)-2,6-dimethyl-5-(4-(N-methylsulfamoyl)phenyl)pyridin-3-yl)acetic acid], the EC50 fell in the range of 0.1 to 1 µM.
For `Cc1nc(C)c([C@H](OC(C)(C)C)C(=O)O)c(N2CCC(C)(C)CC2)c1-c1ccc(C(=O)NCc2c(F)cc(F)cc2F)cc1` [Example 69, (S)-2-(tert-Butoxy)-2-(4-(4,4-dimethylpiperidin-1-yl)-2,6-dimethyl-5-(4-((2,4,6-trifluorobenzyl)carbamoyl)phenyl)pyridin-3-yl)acetic acid], the EC50 was < 0.1 µM.

The experiment is the same for the next values; noted with them: Renilla, NL43, 120 h, read-out: EC50 μM.
Take `Cc1nc(C)c([C@H](OC(C)(C)C)C(=O)O)c(N2CCC(C)(C)CC2)c1-c1ccc(CC(C)C)cc1` [Example 20, (S)-2-(tert-Butoxy)-2-(4-(4,4-dimethylpiperidin-1-yl)-5-(4-isobutylphenyl)-2,6-dimethylpyridin-3-yl)acetic acid]: the EC50 came to 0.161 µM.
As for `Cc1nc(C)c([C@H](OC(C)(C)C)C(=O)O)c(N2CCC(C)(C)CC2)c1-c1ccc(CC#N)cc1` [Example 48, (S)-2-(tert-Butoxy)-2-(5-(4-(cyanomethyl)phenyl)-4-(4,4-dimethylpiperidin-1-yl)-2,6-dimethylpyridin-3-yl)acetic acid], the EC50 came to 0.109 µM.
With `Cc1nc(C)c([C@H](OC(C)(C)C)C(=O)O)c(N2CCC(C)(C)CC2)c1-c1ccc(C(=O)NCc2c(F)cc(F)cc2F)cc1` [Example 69, (S)-2-(tert-Butoxy)-2-(4-(4,4-dimethylpiperidin-1-yl)-2,6-dimethyl-5-(4-((2,4,6-trifluorobenzyl)carbamoyl)phenyl)pyridin-3-yl)acetic acid], the EC50 worked out at 0.004 µM.
